# From patent US20240409585A1, “MACROCYCLIC IMMUNOMODULATORS” (priority 2021, published 2024)
# Bridge positions count the residues as written; N and C are the ends. Square brackets hold non-standard residues; d marks the D form. Peptide text beside a SMILES is read from it. * marks the point of attachment. ξ: configuration not given here. Phe(4-COOH) = N[C@@H](Cc1ccc(C(=O)O)cc1)C(=O)O; Bip = N[C@@H](Cc1ccc(-c2ccccc2)cc1)C(=O)O; hArg = N=C(N)NCCCC[C@H](N)C(=O)O; 4Pal = N[C@@H](Cc1ccncc1)C(=O)O; Cha = N[C@@H](CC1CCCCC1)C(=O)O; Ile(3ξ) = CCC(C)[C@H](N)C(=O)O; Thr(3ξ) = CC(O)[C@H](N)C(=O)O; Ahp(2) = CCCCC[C@H](N)C(=O)O; NMeNle = CCCC[C@H](NC)C(=O)O; Dap(Me) = CNC[C@H](N)C(=O)O; Carboxymethyl = O=C(O)C*; NMeA = CN[C@@H](C)C(=O)O; Nle = CCCC[C@H](N)C(=O)O; Orn = NCCC[C@H](N)C(=O)O; Dab = NCC[C@H](N)C(=O)O; Dap = NC[C@H](N)C(=O)O
# Biological target: T1, PE-labeled human PD-L1-Ig binding to Jurkat cell line over-expressing human PD-1 (Jurkat-PD-1) (Homo sapiens, UniProt Q15116)
# T1 construct: expressed in transfected cells; host or cells: Jurkat
# Assay: Jurkat-PD-1 Cell Binding High-Content Screening Assay (CBA): Method 1
# Conditions: Jurkat-hPD-1 cells, PE-labeled PD-L1-Ig 20 nM final; read-out: Jurkat HPDL1 PD1 IC50 (uM) (Method 1)
# T1 sequence (Q15116 25-288): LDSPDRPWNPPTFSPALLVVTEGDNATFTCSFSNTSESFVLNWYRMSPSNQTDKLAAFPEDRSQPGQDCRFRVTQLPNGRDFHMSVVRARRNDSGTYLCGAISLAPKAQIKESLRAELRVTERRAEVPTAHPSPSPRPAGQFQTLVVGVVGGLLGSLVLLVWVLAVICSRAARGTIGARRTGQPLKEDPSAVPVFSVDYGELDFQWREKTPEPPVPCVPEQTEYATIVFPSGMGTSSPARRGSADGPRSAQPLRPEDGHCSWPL
row,Compound,IC50
1,CCC(C)[C@@H]1NC(=O)[C@H](Cc2ccc(-c3ccccc3)cc2)NC(=O)[C@H](C(C)C)NC(=O)[C@H](Cc2c[nH]c3ccccc23)NC(=O)[C@H](CC(=O)O)NC(=O)[C@H](Cc2ccc(OCC(=O)O)cc2)NC(=O)[C@H](CNC)NC(=O)CSC[C@@H](C(=O)N[C@@H](CC(N)=O)C(N)=O)NC(=O)[C@H](C(C)O)NC(=O)[C@H](C(C)C)NC(=O)[C@H](CC2CCCCC2)NC(=O)[C@H](CN)NC(=O)[C@@H](CC(C)C)NC(=O)[C@H](C)N(C)C1=O (stereo partly drawn) [Compound 2078] ({CH2CO}-[Dap(Me)]Y(Carboxymethyl)DWV[Bip][Ile(3ξ)][NMeA][dL][Dap][Cha]V[Thr(3ξ)]CN-NH2; thioether N-14),0.02 µM
2,CCC(C)[C@@H]1NC(=O)[C@H](Cc2ccc(-c3ccccc3)cc2)NC(=O)[C@H](C(C)C)NC(=O)[C@H](Cc2c[nH]c3ccccc23)NC(=O)[C@H](CC(=O)O)NC(=O)[C@H](Cc2ccc(O)cc2)NC(=O)[C@H](CC(N)=O)NC(=O)CSC[C@@H](C(=O)N[C@@H](CCCCN)C(N)=O)NC(=O)[C@H](C(C)O)NC(=O)[C@H](C(C)C)NC(=O)[C@H](CC2CCCCC2)NC(=O)[C@H](CCN)NC(=O)[C@@H](CC(C)C)NC(=O)[C@H](C)N(C)C1=O (stereo partly drawn) [Compound 2079] ({CH2CO}-NYDWV[Bip][Ile(3ξ)][NMeA][dL][Dab][Cha]V[Thr(3ξ)]CK-NH2; thioether N-14),0.02 µM
3,CC(C)C[C@H]1NC(=O)[C@H](C)N(C)C(=O)[C@H](CCC(=O)O)NC(=O)[C@H](Cc2ccc(-c3ccccc3)cc2)NC(=O)[C@H](C(C)C)NC(=O)[C@H](Cc2c[nH]c3ccccc23)NC(=O)[C@H](CC(=O)O)NC(=O)[C@H](Cc2ccc(OCC(=O)O)cc2)NC(=O)[C@H](CC(N)=O)NC(=O)CSC[C@@H](C(=O)NCC(N)=O)NC(=O)[C@H](C(C)O)NC(=O)[C@H](C(C)C)NC(=O)[C@H](CC2CCCCC2)NC(=O)[C@H](CCN)NC1=O (stereo partly drawn) [Compound 2085] ({CH2CO}-NY(Carboxymethyl)DWV[Bip]E[NMeA][dL][Dab][Cha]V[Thr(3ξ)]CG-NH2; thioether N-14),0.01 µM
4,CC(C)C[C@@H]1NC(=O)[C@H](CCN)NC(=O)[C@@H](CC(C)C)NC(=O)[C@H](C)N(C)C(=O)[C@H](CCC(=O)O)NC(=O)[C@H](Cc2ccc(-c3ccccc3)cc2)NC(=O)[C@H](C(C)C)NC(=O)[C@H](Cc2c[nH]c3ccccc23)NC(=O)[C@H](CC(=O)O)NC(=O)[C@H](Cc2ccc(OCC(=O)O)cc2)NC(=O)[C@H](CC(N)=O)NC(=O)CSC[C@@H](C(=O)NCC(N)=O)NC(=O)[C@H](C(C)O)NC(=O)[C@H](C(C)C)NC1=O (stereo partly drawn) [Compound 2086] ({CH2CO}-NY(Carboxymethyl)DWV[Bip]E[NMeA][dL][Dab]LV[Thr(3ξ)]CG-NH2; thioether N-14),0.2 µM
5,CCCC[C@@H]1NC(=O)[C@H](Cc2ccc(-c3ccccc3)cc2)NC(=O)[C@H](C(C)C)NC(=O)[C@H](Cc2c[nH]c3ccccc23)NC(=O)[C@H](CC(=O)O)NC(=O)[C@H](Cc2ccc(C(=O)O)cc2)NC(=O)[C@H](Cc2ccncc2)NC(=O)CSC[C@@H](C(=O)N[C@@H](CC(N)=O)C(N)=O)NC(=O)[C@H](CO)NC(=O)[C@H](C(C)C)NC(=O)[C@H](CC2CCCCC2)NC(=O)[C@H](CCN)NC(=O)[C@@H](C)NC(=O)[C@H](CCCC)N(C)C1=O [Compound 2089] ({CH2CO}-[4Pal][Phe(4-COOH)]DWV[Bip][Nle][NMeNle][dA][Dab][Cha]VSCN-NH2; thioether N-14),0.05 µM
6,CCCC[C@H]1C(=O)N[C@H](C)C(=O)N[C@@H](CCN)C(=O)N[C@@H](CC2CCCCC2)C(=O)N[C@@H](C(C)C)C(=O)N[C@@H](CO)C(=O)N[C@H](C(=O)N[C@@H](CC(N)=O)C(N)=O)CSCC(=O)N[C@@H](Cc2ccncc2)C(=O)N[C@@H](Cc2ccc(C(=O)O)cc2)C(=O)N[C@@H](CC(=O)O)C(=O)N[C@@H](Cc2c[nH]c3ccccc23)C(=O)N[C@@H](C(C)C)C(=O)N[C@@H](Cc2ccc(-c3ccccc3)cc2)C(=O)N[C@@H](CCCN)C(=O)N1C [Compound 2090] ({CH2CO}-[4Pal][Phe(4-COOH)]DWV[Bip][Orn][NMeNle][dA][Dab][Cha]VSCN-NH2; thioether N-14),0.14 µM
7,CCC(C)[C@@H]1NC(=O)[C@H](Cc2ccc(-c3ccccc3)cc2)NC(=O)[C@H](C(C)C)NC(=O)[C@H](Cc2c[nH]c3ccccc23)NC(=O)[C@H](CC(=O)O)NC(=O)[C@H](Cc2ccc(O)cc2)NC(=O)[C@H](Cc2ccncc2)NC(=O)CSC[C@@H](C(=O)N[C@@H](C)C(N)=O)NC(=O)[C@H](C(C)O)NC(=O)[C@H](C(C)C)NC(=O)[C@H](CC2CCCCC2)NC(=O)[C@H](Cc2c[nH]cn2)NC(=O)[C@@H](CC(C)C)NC(=O)[C@H](C)N(C)C1=O (stereo partly drawn) [Compound 2093] ({CH2CO}-[4Pal]YDWV[Bip][Ile(3ξ)][NMeA][dL]H[Cha]V[Thr(3ξ)]CA-NH2; thioether N-14),0.11 µM
8,CC(C)C[C@H]1NC(=O)[C@H](C)N(C)C(=O)[C@H](CCC(=O)O)NC(=O)[C@H](Cc2ccc(-c3ccccc3)cc2)NC(=O)[C@H](C(C)C)NC(=O)[C@H](Cc2c[nH]c3ccccc23)NC(=O)[C@H](CC(=O)O)NC(=O)[C@H](Cc2ccc(O)cc2)NC(=O)[C@H](CCCCNC(=N)N)NC(=O)CSC[C@@H](C(=O)NCC(N)=O)NC(=O)[C@H](C(C)O)NC(=O)[C@H](C(C)C)NC(=O)[C@H](CC2CCCCC2)NC(=O)[C@H](CCN)NC1=O (stereo partly drawn) [Compound 2094] ({CH2CO}-[hArg]YDWV[Bip]E[NMeA][dL][Dab][Cha]V[Thr(3ξ)]CG-NH2; thioether N-14),0.02 µM

# The remaining lines, values ahead:
row,IC50,Compound
1,0.05 µM,CCC(C)[C@@H]1NC(=O)[C@H](Cc2ccc(-c3ccccc3)cc2)NC(=O)[C@H](C(C)C)NC(=O)[C@H](Cc2c[nH]c3ccccc23)NC(=O)[C@H](CC(=O)O)NC(=O)[C@H](Cc2ccc(O)cc2)NC(=O)[C@H](CC(N)=O)NC(=O)CSC[C@@H](C(=O)N[C@@H](C)C(N)=O)NC(=O)[C@H](CO)NC(=O)[C@H](C(C)C)NC(=O)[C@H](CC(C)C)NC(=O)[C@H](CCN)NC(=O)[C@@H](CC(C)C)NC(=O)[C@H](C)N(C)C1=O (stereo partly drawn) [Compound 2070] ({CH2CO}-NYDWV[Bip][Ile(3ξ)][NMeA][dL][Dab]LVSCA-NH2; thioether N-14)
2,0.15 µM,CC(C)C[C@@H]1NC(=O)[C@H](CCN)NC(=O)[C@@H](CC(C)C)NC(=O)[C@H](C)N(C)C(=O)[C@H](CCCN)NC(=O)[C@H](Cc2ccc(-c3ccccc3)cc2)NC(=O)[C@H](C(C)C)NC(=O)[C@H](Cc2c[nH]c3ccccc23)NC(=O)[C@H](CC(=O)O)NC(=O)[C@H](Cc2ccc(O)cc2)NC(=O)[C@H](CN)NC(=O)CSC[C@@H](C(=O)N[C@@H](C)C(N)=O)NC(=O)[C@H](C(C)O)NC(=O)[C@H](C(C)C)NC1=O (stereo partly drawn) [Compound 2080] ({CH2CO}-[Dap]YDWV[Bip][Orn][NMeA][dL][Dab]LV[Thr(3ξ)]CA-NH2; thioether N-14)
3,0.03 µM,CC(C)C[C@@H]1NC(=O)[C@H](CCN)NC(=O)[C@@H](CC(C)C)NC(=O)[C@H](C)N(C)C(=O)[C@H](CCCN)NC(=O)[C@H](Cc2ccc(-c3ccccc3)cc2)NC(=O)[C@H](C(C)C)NC(=O)[C@H](Cc2c[nH]c3ccccc23)NC(=O)[C@H](CC(=O)O)NC(=O)[C@H](Cc2ccc(O)cc2)NC(=O)[C@H](Cc2ccncc2)NC(=O)CSC[C@@H](C(=O)N[C@@H](C)C(N)=O)NC(=O)[C@H](C(C)O)NC(=O)[C@H](C(C)C)NC1=O (stereo partly drawn) [Compound 2081] ({CH2CO}-[4Pal]YDWV[Bip][Orn][NMeA][dL][Dab]LV[Thr(3ξ)]CA-NH2; thioether N-14)
4,0.07 µM,CCCCC[C@@H]1NC(=O)[C@H](Cc2ccc(-c3ccccc3)cc2)NC(=O)[C@H](C(C)C)NC(=O)[C@H](Cc2c[nH]c3ccccc23)NC(=O)[C@H](CC(=O)O)NC(=O)[C@H](Cc2ccc(O)cc2)NC(=O)[C@H](CN)NC(=O)CSC[C@@H](C(=O)N[C@@H](C)C(N)=O)NC(=O)[C@H](C(C)O)NC(=O)[C@H](C(C)C)NC(=O)[C@H](CC(C)C)NC(=O)[C@H](CCN)NC(=O)[C@@H](CC(C)C)NC(=O)[C@H](C)N(C)C1=O (stereo partly drawn) [Compound 2082] ({CH2CO}-[Dap]YDWV[Bip][Ahp(2)][NMeA][dL][Dab]LV[Thr(3ξ)]CA-NH2; thioether N-14)
5,0.06 µM,CCCCC[C@@H]1NC(=O)[C@H](Cc2ccc(-c3ccccc3)cc2)NC(=O)[C@H](C(C)C)NC(=O)[C@H](Cc2c[nH]c3ccccc23)NC(=O)[C@H](CC(=O)O)NC(=O)[C@H](Cc2ccc(O)cc2)NC(=O)[C@H](CC(N)=O)NC(=O)CSC[C@@H](C(=O)N[C@@H](C)C(N)=O)NC(=O)[C@H](C(C)O)NC(=O)[C@H](C(C)C)NC(=O)[C@H](CC(C)C)NC(=O)[C@H](CCN)NC(=O)[C@@H](CC(C)C)NC(=O)[C@H](C)N(C)C1=O (stereo partly drawn) [Compound 2083] ({CH2CO}-NYDWV[Bip][Ahp(2)][NMeA][dL][Dab]LV[Thr(3ξ)]CA-NH2; thioether N-14)
6,0.07 µM,CCC(C)[C@@H]1NC(=O)[C@H](Cc2ccc(-c3ccccc3)cc2)NC(=O)[C@H](C(C)C)NC(=O)[C@H](Cc2c[nH]c3ccccc23)NC(=O)[C@H](CC(=O)O)NC(=O)[C@H](Cc2ccc(OCC(=O)O)cc2)NC(=O)[C@H](CN)NC(=O)CSC[C@@H](C(=O)N[C@@H](C)C(N)=O)NC(=O)[C@H](C(C)O)NC(=O)[C@H](C(C)C)NC(=O)[C@H](CC(C)C)NC(=O)[C@H](CCN)NC(=O)[C@@H](CC(C)C)NC(=O)[C@H](C)N(C)C1=O (stereo partly drawn) [Compound 2084] ({CH2CO}-[Dap]Y(Carboxymethyl)DWV[Bip][Ile(3ξ)][NMeA][dL][Dab]LV[Thr(3ξ)]CA-NH2; thioether N-14)
7,0.17 µM,CC(C)C[C@H]1NC(=O)[C@H](C)N(C)C(=O)[C@H](CCC(=O)O)NC(=O)[C@H](Cc2ccc(-c3ccccc3)cc2)NC(=O)[C@H](C(C)C)NC(=O)[C@H](Cc2c[nH]c3ccccc23)NC(=O)[C@H](CC(N)=O)NC(=O)[C@H](Cc2ccc(O)cc2)NC(=O)[C@H](Cc2ccncc2)NC(=O)CSC[C@@H](C(=O)N[C@@H](C)C(N)=O)NC(=O)[C@H](C(C)O)NC(=O)[C@H](C(C)C)NC(=O)[C@H](CC2CCCCC2)NC(=O)[C@H](CCN)NC1=O (stereo partly drawn) [Compound 2088] ({CH2CO}-[4Pal]YNWV[Bip]E[NMeA][dL][Dab][Cha]V[Thr(3ξ)]CA-NH2; thioether N-14)
